Here are results for one molecule from patent US11420962B2, “Indene derivatives useful in treating pain and inflammation” (TARO PHARMACEUTICALS INC., priority 2018, dated 2022).

Structures are written as SMILES.

One assay concerns T cells. In words: T cell proliferation (anti-CD3/anti-CD28 dynabeads, CCK-8). The assay is classed as cell-based, mice. The conditions noted are these: Table 4, mouse T cells, 72 hours after dynabeads, read-out: Scoring (IC50, cell proliferation). How it is done:
Spleens were obtained from six male, CD-1 outbred mice, approximately 8 weeks old. Cells were harvested under sterile conditions by forcing each spleen though a cell filter (pore size 100 μm diameter). A homogenous cell suspension was obtained by washing the cells in fresh medium and passing cells through a smaller cell filter (pore size 70 μm).
Untouched T cells were isolated using the Pan T cell isolation kit (Miltenyi Biotech). Briefly, cells were counted and incubated with the required volume of antibody cocktail for 5 minutes at 4° C. before addition of microbeads and incubation for 10 minutes at 4° C. Labeled cells were retained in a magnetic column while unlabeled cells (T cells) passed through the column and were retained for use in the assay.
Cell viability was assessed by Trypan Blue exclusion and found to be >99% prior to transfer to plates. Isolated T cells were seeded out in 96 well plates at a density of 50,000 cells per well and allowed to incubate for 60 minutes in a humidified cell culture (37° C., 5% CO2) incubator prior to compound treatment. The media used for this assay (TexMACS, Miltenyi Biotech) was previously optimized for proliferation of T cells in serum free conditions.
Representative compounds of the invention (i.e., test compounds) were prepared as 30 mM stocks in 100% DMSO. Test compounds were initially diluted in media to yield 3 mM stocks before an additional 1:10 dilution in media was performed to yield working stocks of 300 μM (1% DMSO). Subsequent dilutions were performed in media (supplemented with 1% DMSO). When added to the assay plates (1:10 dilution), these yielded final concentrations in the assay plates of in 0.1% DMSO. The reference compound, Cyclosporin A, was prepared in an identical manner as above.
Unstimulated and Stimulated Control wells received an identical volume of TexMACS media/1% DMSO at this time, resulting in a final concentration of 0.1% DMSO across the plate. Mouse anti-CD3/anti-CD28 dynabeads were prepared (following the manufacturers' instructions) in TexMACS media and added to appropriate wells to achieve a final concentration of 1 bead per cell. Unstimulated Control wells then received an identical volume of TexMACS. Plates were centrifuged 72 hours after addition of dynabeads, (300×g for 3 minutes) to pellet the cells and 60% of the supernatant was removed to a fresh plate for analysis by ELISA. After removal of 60% of the supernatant for subsequent ELISA, cell proliferation was assessed using the CCK-8 assay.
Average response by the standard compound, cyclosporin A, was 1 uM.

The test system of assay [1] is female Sprague-Dawley rats. In words: Cyclophosphamide-induced cystitis in rats (visceral pain). Format: in vivo. The settings on record: 0.3 to 1.0 mg/kg dose, oral gavage four days; 4 h after cyclophosphamide. The method, then:
Representative compounds of the invention (i.e., test compounds) were administered to female Sprague-Dawley rats, for four days by oral gavage in 0.9% saline. Two hours after the fourth dose, the rats were challenged by intraperitoneal administration of cyclophosphamide (150 mg/kg). Referred mechanical sensitivity was measured four hours later by applying a series of eight von Frey filaments to the lower abdomen, three times each for 1-2 seconds with a 5 second interval between applications. Responses were scored (zero-no response; one-response, two-response and change of position, and three-response, change of position and licking the site or vocalization), totaled and the percent of maximal possible nociceptive score calculated. Ibuprofen was used as a reference standard.

Assay [2] relates to rats (male, Wistar). In words: Rat monosodium iodoacetate-induced osteoarthritis. The assay is classed as in vivo. The conditions noted are these: for reduction difference in weight bearing as compared to the vehicle: PO, QD. How it is done: Representative compounds of the invention (i.e., test compounds) were administered to rats (male, Wistar) PO, QD, at 3 or 30 mg/kg, starting on Day 0 through to Day 21 of the study. Osteoarthritis was modeled by intra-articular injection of 3 mg of monosodium iodoacetate (MIA) in the right knee. Knee swelling, paw withdrawal threshold (mechanical allodynia) and the difference in weight bearing were measured on Day 0 (pre-induction) and on Days 3, 7, 14 and 21 post-MIA injection. Tramadol was used as a reference standard.

Assay [3] deals with rats (male, Wistar). Put plainly: Complete Freund's Adjuvant (CFA) model of inflammatory pain in rats. The conditions noted are these: 30 mg/kg dose. The assay is classed as in vivo. How it is done:
Representative compounds of the invention (i.e., test compounds) were tested in this model of inflammatory pain. The rats (male, Wistar) were acclimatized to the instruments (plantar test surface and dynamic plantar aesthesiometer) on two consecutive days prior to the initiation of the study. On Day 0, basal paw withdrawal latency and paw withdrawal threshold were taken and animals were randomized to different groups. Complete Freund's Adjuvant (CFA) at 1 mg/mL (0.1 mL) was injected into the plantar surface of right hind paw. Test compounds (3 or 30 mg/kg) were administered PO, twice (Day 0 and Day 1) or once, on Day 1 (24 h after CFA). Thermal hyperalgesia and mechanical allodynia were assessed at 0 (baseline), 1, 3 and 6 h after administration of the test compound on Day 1. Diclofenac was used as a reference compound, given once on Day 1.

In assay [4] the test system is Rats (male, Sprague-Dawley). In words: Spinal nerve ligation (neuropathic pain). The assay is classed as in vivo. The source says: Rats (male, Sprague-Dawley) were anaesthetized and placed in a prone position and the left paraspinal muscles were separated from the spinous processes at the L6-S2 levels. The L6 transverse process was carefully removed to visually identify the L4-L6 spinal nerves. The left L5 spinal nerves were isolated and tightly ligated with 6-0 silk thread. The skin was sutured to close the open tissue and animals were allowed to recover for 1 week before pain assessment. Basal readings for mechanical allodynia and thermal hyperalgesia were performed using a dynamic plantar aesthesiometer and plantar test surface, respectively, before surgery. On Day 7 following surgery, mechanical allodynia and thermal hyperalgesia were assessed and animals were randomized into treatment groups based on these baseline readings. […] Thermal hyperalgesia and mechanical allodynia were tested at 0, 60 and 120 minutes post administration of compounds on Days 7 and 14.

For the molecule `C=C1CC[C@H]2[C@H](CN)[C@@H]([C@@]3(C)Cc4cn[nH]c4C[C@@H]3CO)CC[C@]12C` [Ia-1, ((5R,6S)-5-((3aS,4R,5S,7aS)-4-(aminomethyl)-7a-methyl-1-methyleneoctahydro-1H-inden-5-yl)-5-methyl-4,5,6,7-tetrahydro-1H-indazol-6-yl)methanol], the IC50 in the assay on T cells fell in the range of 6 to 15 µM. The “nociceptive threshold, % of baseline (pre-challenge) levels” value in assay [1] is on record as 70-91%. The “reduction difference in weight bearing as compared to the vehicle” value was 50% with rats (male, Wistar) [2] (3.0 mg/kg dose) and 57% in the assay with rats (male, Wistar) [2] (30 mg/kg). Also, the “reduction in knee diameter as compared to the vehicle” value with rats (male, Wistar) [2] (Day 3, 3.0 mg/kg) came to 23%; in the assay with rats (male, Wistar) [2] (Day 3, 30 mg/kg), 43%. In addition, the “increase in the paw withdrawal threshold” value in the assay on rats (male, Wistar) [3] is 31%. Moreover, the “overall increase in paw withdrawal threshold as compared to the vehicle” value in assay [4] (3 mg/kg) came to 48%; in assay [4] (10 mg/kg), 62%; in assay [4] (30 mg/kg) it was 82%.
